Source: patent publication US6469008B2, “(R)-hydroxynefazodone antipsychotic therapy” (Sepracor Inc., priority 1999, dated 2002)

Legend:
[1] = target: T1, norepinephrine uptake by rat hypothalamus synaptosomes (Rattus norvegicus, UniProt Q63380); test: Norepinephrine uptake functional assay; assay type: biochemical; conditions: [3H]-norepinephrine, read-out: Monoamine Neuronal Transport NE uptake (IC50)
T1 construct: tissue Cerep; host or cells: male Wistar rat hypothalamus synaptosomes
Procedure: Norepinephrine uptake functional assay
Characterization of norepinephrine uptake is performed using synaptosomes isolated at Cerep in a 0.32 M sucrose buffer from a male Wistar rat hypothalamus. The uptake of radiolabeled norepinephrine by synaptosomes (100 μg of proteins/point) is allowed by incubating them for 20 minutes at 37° C. in presence of test compounds and [3H]-norepinephrine (0.1 μCi/point). The experiment is performed in a deep well.
Synaptosomes and [3H]-norepinephrine are prepared in a Krebs buffer pH 7.4 containing 25 mM NaHCO3, 11 mM glucose and 50 μM ascorbic acid. This incubation buffer is oxygenated during 5 minutes before incubation. Basal control is incubated for 20 minutes at 4° C. in order to avoid any uptake. Following this incubation the uptake is stopped by filtration through an “unifilter 96-wells GFB” Packard plate washed with Krebs buffer containing 25 mM NaHCO3 in order to eliminate the free [3H]-norepinephrine. The radioactivity associated to the synaptosomes retained onto the unifilter corresponding to the uptake is then measured with a microplate scintillation counter Topcount, Packard using a scintillation liquid microscint 0, Packard.
[See Perovics and Müiller, op.cit. (1995).]

[2] = target: T2, 5-HT1A receptors (Homo sapiens, UniProt P08908); test: 5-HT1A receptor binding; set-up: expressed in transfected cells; host or cells: CHO cells; conditions: [3H]8-OH-DPAT, transfected CHO cell membranes; read-out: Serotonin Receptor Binding 5-HT1A (IC50)
T2 sequence (P08908 1-422): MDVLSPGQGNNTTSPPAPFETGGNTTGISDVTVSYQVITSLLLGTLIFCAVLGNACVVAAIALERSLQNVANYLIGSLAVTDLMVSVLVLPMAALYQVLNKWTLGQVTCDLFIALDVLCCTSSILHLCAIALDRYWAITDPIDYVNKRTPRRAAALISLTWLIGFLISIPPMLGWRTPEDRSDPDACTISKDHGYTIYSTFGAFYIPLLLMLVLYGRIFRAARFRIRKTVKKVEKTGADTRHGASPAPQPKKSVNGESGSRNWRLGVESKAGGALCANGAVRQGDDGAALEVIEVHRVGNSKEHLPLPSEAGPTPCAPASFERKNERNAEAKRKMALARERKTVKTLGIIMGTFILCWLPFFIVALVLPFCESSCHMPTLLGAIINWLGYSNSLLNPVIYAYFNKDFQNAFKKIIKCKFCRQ
Procedure: (§1) Dopamine and serotonin receptor binding assays were performed in a standard manner with the incubation of membrane preparations in an assay buffer in the presence of a known radioactively labeled specific ligand for the receptor subtypes. Nonspecific binding was determined by assessing binding in the presence of excess ligand. Specific binding was measured as the total labeled ligand bound after the nonspecific binding was subtracted. The effect of the tested agents was measured by determining the competition for the receptor binding across a concentration range. Subsequently, an IC50 was determined for the agents tested. More specific details are provided below for several of the assays performed.
(§2) Aliquots of transfected CHO cell membrane preparations corresponding to 7-15 μg protein are incubated for 60 min at 22° C. in 250 μl of 50 mM Tris-HCl buffer (pH 7.4) containing 10 mM MgSO4, 0.5 mM EDTA, 0.3 nM [^3H]8-OH-DPAT and increasing concentrations of the competing drugs. Nonspecific binding is determined in the presence of 10 μM 8-OH-DPAT. After incubation, the samples are filtered rapidly under vacuum through glass fiber filters (GF/B, Packard) and rinsed several times with ice-cold 50 mM Tris-HCl using a cell harvester (Packard). Bound radioactivity is measured with a scintillation counter (Topcount, Packard) using a liquid scintillation cocktail (Microscint 0, Packard). The reference compound for this assay is 8-OH-DPAT.

[3] = target: T3, Human D4.4 receptor (Homo sapiens, UniProt P21917); test: Dopamine D4 receptor binding (head prints D); conditions: head prints only D
T3 construct: expressed in transfected cells; host or cells: CHO cells
T3 sequence (P21917 1-419): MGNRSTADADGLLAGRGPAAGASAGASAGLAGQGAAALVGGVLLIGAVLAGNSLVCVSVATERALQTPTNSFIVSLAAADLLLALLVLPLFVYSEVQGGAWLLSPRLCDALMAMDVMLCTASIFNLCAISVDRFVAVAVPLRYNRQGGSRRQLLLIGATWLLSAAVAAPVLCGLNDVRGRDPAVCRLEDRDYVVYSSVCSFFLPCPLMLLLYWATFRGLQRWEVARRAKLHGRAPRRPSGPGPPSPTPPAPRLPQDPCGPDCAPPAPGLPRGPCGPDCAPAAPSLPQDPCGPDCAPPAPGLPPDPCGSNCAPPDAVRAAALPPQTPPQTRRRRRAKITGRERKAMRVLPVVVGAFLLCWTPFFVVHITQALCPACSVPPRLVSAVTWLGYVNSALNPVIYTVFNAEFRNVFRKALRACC
Procedure: as §1
as §2, with “to 100” for “to 7-15”, “containing 120” for “containing 10”, “mM NaCl, 5 mM KCl, 5 mM MgCl2, 1” for “mM MgSO4, 0.5”, “nM [^3H]spiperone” for “nM [^3H]8-OH-DPAT”, “μM (+)butaclamol.” for “μM 8-OH-DPAT.”, “is clozapine.” for “is 8-OH-DPAT.”

[4] = target: T4, Human 5-HT2A receptor (Homo sapiens, UniProt P28223); test: 5-HT2A receptor binding; conditions: [3H]ketanserin, transfected CHO cell membranes; read-out: Serotonin Receptor Binding 5-HT2A (IC50)
T4 construct: expressed in transfected cells; host or cells: CHO cells
T4 sequence (P28223 whole entry): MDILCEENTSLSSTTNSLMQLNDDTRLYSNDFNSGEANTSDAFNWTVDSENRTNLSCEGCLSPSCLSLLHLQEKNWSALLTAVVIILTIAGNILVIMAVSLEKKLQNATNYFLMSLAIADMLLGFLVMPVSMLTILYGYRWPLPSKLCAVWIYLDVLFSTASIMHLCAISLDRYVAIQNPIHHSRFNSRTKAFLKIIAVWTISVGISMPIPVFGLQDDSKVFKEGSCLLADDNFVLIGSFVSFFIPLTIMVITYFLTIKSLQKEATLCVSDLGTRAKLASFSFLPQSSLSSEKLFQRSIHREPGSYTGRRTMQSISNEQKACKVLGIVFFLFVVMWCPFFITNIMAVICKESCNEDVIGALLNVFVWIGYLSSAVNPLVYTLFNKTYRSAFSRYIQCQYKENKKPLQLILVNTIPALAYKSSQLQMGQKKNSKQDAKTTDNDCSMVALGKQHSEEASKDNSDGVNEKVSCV
Procedure: as §1
Aliquots of transfected CHO cell membrane preparations corresponding to 20-50 μg protein are incubated for 15 min at 37° C. in 250 μl of 50 mM Tris-HCl buffer (pH 7.4) containing 2 nM [^3H]ketanserin and increasing concentrations of the competing drugs. Nonspecific binding is determined in the presence of 1 μM ketanserin. After incubation, the samples are filtered rapidly under vacuum through glass fiber filters (GF/B, Packard) and rinsed several times with ice-cold 50 mM Tris-HCl using a cell harvester (Packard). Bound radioactivity is measured with a scintillation counter (Topcount, Packard) using a liquid scintillation cocktail (Microscint 0, Packard).
The reference compound for this assay is ketanserin.

[5] = target: T5, 5-HT1D (Homo sapiens, UniProt P28221); test: 5-HT1D receptor binding; conditions: read-out: Serotonin Receptor Binding 5-HT1D (IC50)
T5 construct: host or cells: membrane preparations
T5 sequence (P28221 whole entry, species assumed): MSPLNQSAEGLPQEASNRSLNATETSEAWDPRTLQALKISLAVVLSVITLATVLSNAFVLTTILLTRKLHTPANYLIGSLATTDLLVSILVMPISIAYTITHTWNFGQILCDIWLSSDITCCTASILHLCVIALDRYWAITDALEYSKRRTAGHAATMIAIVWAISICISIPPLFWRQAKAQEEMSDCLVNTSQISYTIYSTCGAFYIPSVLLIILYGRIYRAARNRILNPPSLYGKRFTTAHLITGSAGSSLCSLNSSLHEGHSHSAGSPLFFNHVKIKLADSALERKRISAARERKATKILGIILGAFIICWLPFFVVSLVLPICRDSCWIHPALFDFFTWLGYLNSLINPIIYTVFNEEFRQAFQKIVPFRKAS
Procedure: as §1

[6] = system: 5-HT2 receptors versus dopamine receptors; test: Selectivity from dopamine and serotonin receptor binding data; conditions: compared with nefazodone or S-hydroxynefazodone
Procedure: as §1

T1 sequence (Q63380 1-617): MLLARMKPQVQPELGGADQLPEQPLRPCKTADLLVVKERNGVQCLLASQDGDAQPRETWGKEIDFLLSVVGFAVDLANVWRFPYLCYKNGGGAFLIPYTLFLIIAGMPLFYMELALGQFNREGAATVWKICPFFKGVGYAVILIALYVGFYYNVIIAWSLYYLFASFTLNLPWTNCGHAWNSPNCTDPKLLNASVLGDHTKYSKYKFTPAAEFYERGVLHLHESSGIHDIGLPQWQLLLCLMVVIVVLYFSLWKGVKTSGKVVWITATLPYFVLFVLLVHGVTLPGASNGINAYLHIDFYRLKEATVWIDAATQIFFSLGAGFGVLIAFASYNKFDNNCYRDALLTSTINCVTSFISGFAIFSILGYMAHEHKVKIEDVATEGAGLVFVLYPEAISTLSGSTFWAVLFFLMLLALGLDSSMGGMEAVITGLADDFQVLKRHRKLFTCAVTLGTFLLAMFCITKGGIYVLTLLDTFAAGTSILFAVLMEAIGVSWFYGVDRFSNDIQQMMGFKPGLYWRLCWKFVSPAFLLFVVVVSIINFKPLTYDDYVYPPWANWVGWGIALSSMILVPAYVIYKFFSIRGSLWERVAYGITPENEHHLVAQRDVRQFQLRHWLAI

IC50 [1] [nM] | IC50 [2] [nM] | IC50 [3] [nM] | IC50 [4] [nM] | IC50 [5] [nM] | selectivity for 5-HT family of receptors, in particular 5-HT2, versus dopamine receptors (D2 and D4) [6] | SMILES
1000 | 409 | 1310 | 20 | 1150 | – | CC(O)c1nn(CCCN2CCN(c3cccc(Cl)c3)CC2)c(=O)n1CCOc1ccccc1 (racemic) [(RS)-OH, 2-[3-[4-(3-chlorophenyl)1-piperazinyl]propyl]-5-(1-hydroxyethyl)-2,4-dihydro-4-(phenoxyethyl)-3H-1,2,4-triazol-3-one, reference compound]
1200 | 496 | 1910 | 22 | 1990 | interacts more selectively | C[C@@H](O)c1nn(CCCN2CCN(c3cccc(Cl)c3)CC2)c(=O)n1CCOc1ccccc1 [(R)-OH, (R)-hydroxynefazodone]
1500 | 249 | 994 | 18 | 234 | – | C[C@H](O)c1nn(CCCN2CCN(c3cccc(Cl)c3)CC2)c(=O)n1CCOc1ccccc1 [(S)-OH, (S)-2-{3-[4-(3-Chlorophenyl)-1-piperazinyl]propyl}-4-(2-phenoxyethyl)-5-[1-(hydroxy)-ethyl]-2,4-dihydro-[1,2,4]triazol-3-one]
